Experimental data as given in ChEMBL document CHEMBL3751797, “Discovery of TRAF-2 and NCK-interacting kinase (TNIK) inhibitors by ligand-based virtual screening methods” (Medchemcomm, 2015).
One block for each compound: values may come before it.

What was measured:
[1] = biological target: T1, TRAF2 and NCK-interacting protein kinase (Homo sapiens, UniProt Q9UKE5); assay: Inhibition of recombinant TNIK (unknown origin) using LRRKtide as substrate at 10 uM after 1 hr in presence of 30 uM ATP
Target sequence in this assay (Q9UKE5 whole entry, looked up): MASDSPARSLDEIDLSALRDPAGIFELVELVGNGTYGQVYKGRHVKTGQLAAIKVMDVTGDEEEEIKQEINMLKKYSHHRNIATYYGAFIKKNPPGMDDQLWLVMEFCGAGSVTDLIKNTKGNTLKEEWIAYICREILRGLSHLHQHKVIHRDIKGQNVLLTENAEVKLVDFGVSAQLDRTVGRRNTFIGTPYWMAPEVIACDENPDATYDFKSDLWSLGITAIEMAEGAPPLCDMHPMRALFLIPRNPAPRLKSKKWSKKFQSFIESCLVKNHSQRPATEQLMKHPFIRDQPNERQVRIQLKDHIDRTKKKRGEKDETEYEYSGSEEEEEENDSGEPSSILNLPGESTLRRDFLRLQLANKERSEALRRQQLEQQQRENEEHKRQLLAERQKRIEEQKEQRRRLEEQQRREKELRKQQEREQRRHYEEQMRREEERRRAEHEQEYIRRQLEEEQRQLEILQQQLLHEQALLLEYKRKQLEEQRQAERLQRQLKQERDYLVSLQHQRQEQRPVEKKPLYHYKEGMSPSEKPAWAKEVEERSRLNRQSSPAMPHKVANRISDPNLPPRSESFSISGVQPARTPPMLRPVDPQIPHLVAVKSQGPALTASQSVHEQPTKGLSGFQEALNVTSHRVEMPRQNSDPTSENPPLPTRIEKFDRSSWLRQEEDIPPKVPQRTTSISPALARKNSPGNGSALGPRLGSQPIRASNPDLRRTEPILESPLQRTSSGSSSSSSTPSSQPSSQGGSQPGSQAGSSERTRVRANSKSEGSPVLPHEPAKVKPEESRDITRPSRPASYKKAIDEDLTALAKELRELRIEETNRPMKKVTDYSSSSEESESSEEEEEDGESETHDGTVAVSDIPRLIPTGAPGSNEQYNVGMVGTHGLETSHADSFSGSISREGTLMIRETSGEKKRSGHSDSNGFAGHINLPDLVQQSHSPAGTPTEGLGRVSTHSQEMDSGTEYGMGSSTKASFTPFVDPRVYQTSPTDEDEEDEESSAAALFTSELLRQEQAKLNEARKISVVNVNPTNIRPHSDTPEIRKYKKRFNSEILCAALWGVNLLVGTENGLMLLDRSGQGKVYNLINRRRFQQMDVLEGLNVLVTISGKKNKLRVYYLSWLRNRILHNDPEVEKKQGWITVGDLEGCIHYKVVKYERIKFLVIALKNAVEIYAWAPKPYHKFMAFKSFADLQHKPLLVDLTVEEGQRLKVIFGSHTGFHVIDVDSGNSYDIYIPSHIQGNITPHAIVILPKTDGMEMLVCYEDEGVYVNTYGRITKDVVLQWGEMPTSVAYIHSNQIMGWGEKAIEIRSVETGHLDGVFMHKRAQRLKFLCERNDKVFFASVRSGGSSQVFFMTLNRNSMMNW

[2] = tested on: NCI-H1703; assay: Cytotoxicity against human NCI-H1703 cells transfected with lentiviral vector 7TFP assessed as cell viability at 10 uM after 72 hrs by ATPlite assay; assay type: cell-based; conditions: nci-h1703, 72 h
[3] = biological target: T1, TRAF2 and NCK-interacting protein kinase; assay: Competitive inhibition of recombinant TNIK (unknown origin) using LRRKtide as substrate after 1 hr in presence of 300 uM ATP
Target sequence in this assay (Q9UKE5 whole entry): as the sequence (Q9UKE5 whole entry, looked up) above

[4] = biological target: T1, TRAF2 and NCK-interacting protein kinase; assay: Competitive inhibition of recombinant TNIK (unknown origin) using LRRKtide as substrate after 1 hr in presence of 3 uM ATP
Target sequence in this assay (Q9UKE5 whole entry): as the sequence (Q9UKE5 whole entry, looked up) above

[5] = biological target: Tyrosine-protein kinase SYK (Homo sapiens) (UniProt P43405); assay: Inhibition of human SYK using srctide as substrate at 10 uM after 1 hr in presence of 30 uM ATP
[6] = biological target: Epidermal growth factor receptor (Homo sapiens) (UniProt P00533); assay: Inhibition of human EGFR using srctide as substrate at 10 uM after 1 hr in presence of 30 uM ATP
[7] = biological target: Fibroblast growth factor receptor 1 (Homo sapiens) (UniProt P11362); assay: Inhibition of human FGFR1 using IGF-1Rtide as substrate at 10 uM after 1 hr in presence of 30 uM ATP
[8] = biological target: Platelet-derived growth factor receptor beta (Homo sapiens) (UniProt P09619); assay: Inhibition of human PDGFRbeta using srctide as substrate at 10 uM after 1 hr in presence of 30 uM ATP
Sequence of Platelet-derived growth factor receptor beta (Homo sapiens) (P09619 whole entry): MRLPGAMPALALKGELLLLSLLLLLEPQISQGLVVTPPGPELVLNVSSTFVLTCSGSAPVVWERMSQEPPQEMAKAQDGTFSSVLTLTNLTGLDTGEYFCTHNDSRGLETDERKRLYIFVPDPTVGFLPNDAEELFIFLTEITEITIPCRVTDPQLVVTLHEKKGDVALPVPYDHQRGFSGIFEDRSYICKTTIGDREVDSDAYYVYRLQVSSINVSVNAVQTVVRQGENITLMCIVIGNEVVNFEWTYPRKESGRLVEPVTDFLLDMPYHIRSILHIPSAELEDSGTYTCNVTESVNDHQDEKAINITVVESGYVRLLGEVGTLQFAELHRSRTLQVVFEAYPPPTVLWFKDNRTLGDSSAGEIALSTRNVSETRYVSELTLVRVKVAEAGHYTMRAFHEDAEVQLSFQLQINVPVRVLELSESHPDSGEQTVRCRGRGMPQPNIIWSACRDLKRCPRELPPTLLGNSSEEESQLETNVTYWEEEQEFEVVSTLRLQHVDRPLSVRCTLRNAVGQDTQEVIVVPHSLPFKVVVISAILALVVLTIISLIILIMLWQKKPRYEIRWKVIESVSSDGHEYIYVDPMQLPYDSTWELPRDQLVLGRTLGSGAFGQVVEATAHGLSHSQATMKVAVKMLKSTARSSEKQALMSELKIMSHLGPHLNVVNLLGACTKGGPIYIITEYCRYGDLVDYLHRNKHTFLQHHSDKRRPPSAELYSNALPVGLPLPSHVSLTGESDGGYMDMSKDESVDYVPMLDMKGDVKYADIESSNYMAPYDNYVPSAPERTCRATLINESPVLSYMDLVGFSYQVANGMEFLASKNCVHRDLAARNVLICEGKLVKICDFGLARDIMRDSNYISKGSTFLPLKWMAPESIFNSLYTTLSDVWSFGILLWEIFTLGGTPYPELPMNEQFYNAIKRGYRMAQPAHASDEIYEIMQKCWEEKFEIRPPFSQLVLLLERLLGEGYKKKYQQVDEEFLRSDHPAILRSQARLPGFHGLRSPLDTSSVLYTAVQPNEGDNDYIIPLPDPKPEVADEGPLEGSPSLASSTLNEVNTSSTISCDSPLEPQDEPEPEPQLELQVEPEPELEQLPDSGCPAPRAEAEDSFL

[9] = biological target: Tyrosine-protein kinase JAK2 (Homo sapiens) (UniProt O60674); assay: Inhibition of human JAK2 using IGF-1Rtide as substrate at 10 uM after 1 hr in presence of 30 uM ATP
[10] = biological target: ALK tyrosine kinase receptor (Homo sapiens) (UniProt Q9UM73); assay: Inhibition of human ALK using IGF-1Rtide as substrate at 10 uM after 2 hrs in presence of 30 uM ATP
[11] = biological target: Fibroblast growth factor receptor 2 (Homo sapiens) (UniProt P21802); assay: Inhibition of human FGFR2 using IGF-1Rtide as substrate at 10 uM after 1 hr in presence of 30 uM ATP
Sequence of Fibroblast growth factor receptor 2 (Homo sapiens) (P21802 22-821 limits assumed): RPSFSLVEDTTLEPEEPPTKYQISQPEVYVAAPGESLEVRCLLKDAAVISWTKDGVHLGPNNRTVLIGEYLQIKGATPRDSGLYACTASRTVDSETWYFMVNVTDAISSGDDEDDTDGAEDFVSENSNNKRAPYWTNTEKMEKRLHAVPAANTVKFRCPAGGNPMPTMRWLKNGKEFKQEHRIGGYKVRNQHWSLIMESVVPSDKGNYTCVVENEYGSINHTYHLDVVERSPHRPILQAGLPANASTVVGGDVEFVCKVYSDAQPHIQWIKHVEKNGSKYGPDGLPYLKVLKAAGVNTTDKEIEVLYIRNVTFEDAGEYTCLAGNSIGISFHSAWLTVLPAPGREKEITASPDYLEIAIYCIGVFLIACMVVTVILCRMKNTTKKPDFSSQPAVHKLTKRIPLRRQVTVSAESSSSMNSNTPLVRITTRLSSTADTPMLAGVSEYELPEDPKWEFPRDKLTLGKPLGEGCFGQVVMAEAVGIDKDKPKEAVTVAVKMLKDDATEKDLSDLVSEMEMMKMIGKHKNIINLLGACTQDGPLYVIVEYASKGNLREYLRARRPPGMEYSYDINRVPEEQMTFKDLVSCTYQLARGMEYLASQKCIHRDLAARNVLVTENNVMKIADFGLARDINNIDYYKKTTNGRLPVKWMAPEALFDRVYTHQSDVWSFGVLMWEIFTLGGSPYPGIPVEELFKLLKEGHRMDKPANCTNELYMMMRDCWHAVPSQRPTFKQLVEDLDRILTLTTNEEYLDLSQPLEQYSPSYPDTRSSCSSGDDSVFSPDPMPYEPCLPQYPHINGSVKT

[12] = biological target: Tyrosine-protein kinase BTK (Homo sapiens) (UniProt Q06187); assay: Inhibition of human BTK using srctide as substrate at 10 uM after 1 hr in presence of 30 uM ATP
[13] = biological target: Receptor-type tyrosine-protein kinase FLT3 (Homo sapiens) (UniProt P36888); assay: Inhibition of human FLT3 using srctide as substrate at 10 uM after 1 hr in presence of 30 uM ATP
[14] = biological target: Glycogen synthase kinase-3 (Homo sapiens) (UniProt P49840+P49841); assay: Inhibition of human GSK3 using GSM as substrate at 10 uM after 1.5 hrs in presence of 30 uM ATP; assay type: protein assay
[15] = biological target: T1, TRAF2 and NCK-interacting protein kinase; assay: Competitive inhibition of recombinant TNIK (unknown origin) using LRRKtide as substrate after 1 hr in presence of 30 uM ATP
Target sequence in this assay (Q9UKE5 whole entry): as the sequence (Q9UKE5 whole entry, looked up) above

[16] = biological target: Insulin-like growth factor 1 receptor (Homo sapiens) (UniProt P08069); assay: Inhibition of human IGF1R at 10 uM in presence of 30 uM ATP
[17] = biological target: Phosphatidylinositol 4,5-bisphosphate 3-kinase catalytic subunit alpha isoform (Homo sapiens) (UniProt P42336); assay: Inhibition of human PI3Kalpha using PIP2 as substrate at 10 uM after 1 hr in presence of 30 uM ATP
[18] = biological target: T1, TRAF2 and NCK-interacting protein kinase; assay: Inhibition of recombinant TNIK (unknown origin) using LRRKtide as substrate after 1 hr in presence of 30 uM ATP
Target sequence in this assay (Q9UKE5 whole entry): as the sequence (Q9UKE5 whole entry, looked up) above

[19] = biological target: Vascular endothelial growth factor receptor 2 (Homo sapiens) (UniProt P35968); assay: Inhibition of human KDR using srctide as substrate at 10 uM after 1 hr in presence of 30 uM ATP
Sequence of Vascular endothelial growth factor receptor 2 (Homo sapiens) (P35968 whole entry): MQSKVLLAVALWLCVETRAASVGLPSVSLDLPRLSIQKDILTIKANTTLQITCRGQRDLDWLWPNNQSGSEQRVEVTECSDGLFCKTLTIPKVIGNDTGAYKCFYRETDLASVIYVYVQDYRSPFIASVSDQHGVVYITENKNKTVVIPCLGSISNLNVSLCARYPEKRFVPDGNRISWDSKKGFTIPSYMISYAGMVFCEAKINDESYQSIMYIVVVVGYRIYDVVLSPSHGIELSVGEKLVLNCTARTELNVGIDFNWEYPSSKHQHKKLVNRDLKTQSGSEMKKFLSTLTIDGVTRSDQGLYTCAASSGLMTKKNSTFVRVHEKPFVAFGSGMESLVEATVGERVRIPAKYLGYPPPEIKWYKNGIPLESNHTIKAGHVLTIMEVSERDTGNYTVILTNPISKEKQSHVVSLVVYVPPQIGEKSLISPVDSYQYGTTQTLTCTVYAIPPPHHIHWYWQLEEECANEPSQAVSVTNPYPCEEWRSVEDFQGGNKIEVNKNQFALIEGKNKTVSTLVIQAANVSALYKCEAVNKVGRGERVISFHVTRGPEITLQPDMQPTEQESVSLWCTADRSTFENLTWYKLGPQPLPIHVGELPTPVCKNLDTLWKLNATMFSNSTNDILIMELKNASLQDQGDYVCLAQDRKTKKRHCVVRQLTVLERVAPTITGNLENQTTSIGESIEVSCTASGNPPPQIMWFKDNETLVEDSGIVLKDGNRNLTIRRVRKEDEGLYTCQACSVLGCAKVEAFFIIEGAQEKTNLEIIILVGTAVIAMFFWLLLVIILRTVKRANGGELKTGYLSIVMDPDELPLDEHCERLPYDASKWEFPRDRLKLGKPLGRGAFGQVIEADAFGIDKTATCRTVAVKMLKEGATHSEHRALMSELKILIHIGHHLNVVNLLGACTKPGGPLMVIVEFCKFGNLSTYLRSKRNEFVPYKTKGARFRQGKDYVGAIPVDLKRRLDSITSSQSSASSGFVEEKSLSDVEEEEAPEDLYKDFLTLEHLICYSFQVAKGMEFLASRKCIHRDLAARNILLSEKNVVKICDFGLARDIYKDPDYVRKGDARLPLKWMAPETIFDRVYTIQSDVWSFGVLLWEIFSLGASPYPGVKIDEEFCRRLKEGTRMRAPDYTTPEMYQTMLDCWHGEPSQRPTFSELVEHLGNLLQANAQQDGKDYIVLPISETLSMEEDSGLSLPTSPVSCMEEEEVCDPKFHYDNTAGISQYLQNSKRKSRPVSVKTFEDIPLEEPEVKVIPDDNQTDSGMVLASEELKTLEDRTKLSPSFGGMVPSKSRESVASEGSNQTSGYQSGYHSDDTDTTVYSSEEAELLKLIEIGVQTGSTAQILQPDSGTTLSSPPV

[20] = biological target: Serine/threonine-protein kinase pim-1 (Homo sapiens) (UniProt P11309); assay: Inhibition of human PIM1 using S6K as substrate at 10 uM after 1 hr in presence of 30 uM ATP
Sequence of Serine/threonine-protein kinase pim-1 (Homo sapiens) (P11309 whole entry, looked up): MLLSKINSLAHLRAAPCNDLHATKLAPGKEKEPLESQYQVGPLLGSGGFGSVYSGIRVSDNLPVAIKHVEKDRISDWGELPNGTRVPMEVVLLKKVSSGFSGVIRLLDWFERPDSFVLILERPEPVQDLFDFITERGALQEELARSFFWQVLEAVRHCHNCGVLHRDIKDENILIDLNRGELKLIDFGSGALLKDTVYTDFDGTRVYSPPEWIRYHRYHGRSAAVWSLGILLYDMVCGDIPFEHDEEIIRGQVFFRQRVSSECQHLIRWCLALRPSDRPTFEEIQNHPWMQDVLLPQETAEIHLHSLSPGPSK

[21] = biological target: T2, Aurora kinase A (Homo sapiens) (UniProt O14965); assay: Inhibition of human AURA using kemptide as substrate at 10 uM after 1 hr in presence of 30 uM ATP
T2 sequence (whole entry): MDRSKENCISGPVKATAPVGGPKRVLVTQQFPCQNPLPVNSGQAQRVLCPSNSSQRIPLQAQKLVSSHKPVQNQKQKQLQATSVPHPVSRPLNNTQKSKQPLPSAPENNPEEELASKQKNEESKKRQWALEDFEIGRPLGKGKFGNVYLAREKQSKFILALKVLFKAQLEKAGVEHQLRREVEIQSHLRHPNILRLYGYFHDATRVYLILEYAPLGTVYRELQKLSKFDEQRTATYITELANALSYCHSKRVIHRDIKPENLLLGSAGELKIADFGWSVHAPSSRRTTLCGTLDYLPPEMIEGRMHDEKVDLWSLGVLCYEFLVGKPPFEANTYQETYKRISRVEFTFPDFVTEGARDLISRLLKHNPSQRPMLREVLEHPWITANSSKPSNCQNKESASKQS

- inhibition [1]: 18.7%
SMILES: O=C(Nc1ccccc1Cl)c1ccc(-c2ccc(Cl)cc2)o1

- inhibition [1]: 72.8%
SMILES: CNS(=O)(=O)c1ccc(NC(=O)c2cc(C)c(-c3ccccc3)s2)cc1

- inhibition [1]: 43%
SMILES: Cc1ccc(NC=C2C(=O)c3ccccc3C2=O)cc1C

- inhibition [1]: 32%
SMILES: COc1ccc(C(=O)/C=C/Nc2ccc(C)c(C)c2)cc1

- inhibition [1]: 4.9%
SMILES: Cc1cc([N+](=O)[O-])ccc1NC(=O)c1ccc(-c2cccc(Cl)c2Cl)o1

- inhibition [1]: 39%
SMILES: CN(C)c1ccc(NC(=O)c2cc3ccccc3o2)cc1

- inhibition [1]: 8.9%
SMILES: O=C(Nc1cc(Cl)cc(Cl)c1)c1ccc(-c2ccc([N+](=O)[O-])cc2)o1

- inhibition [1]: 23.1%
SMILES: CC(=O)Nc1ccc(NC(=O)c2ccc(-c3ccc(Cl)c(Cl)c3)o2)cc1

- inhibition [1]: 4.1%
SMILES: CC(C)C(=O)Nc1cccc(NC(=O)c2ccc(-c3ccc(Cl)cc3)o2)c1

- inhibition [1]: 40%
SMILES: Cc1ccc(-c2cc(C(=O)Nc3ccncc3)no2)cc1

- inhibition [1]: 22.3%
SMILES: Cc1cc([N+](=O)[O-])ccc1-c1ccc(C(=O)Nc2cccc(Cl)c2N2CCOCC2)o1

- inhibition [1]: 61.7%
SMILES: Cc1cc(C(=O)Nc2ccccc2C(N)=O)sc1-c1ccccc1

SMILES: CN1CCN(c2ccc3nc(-c4c(N)c5c(F)cccc5[nH]c4=O)[nH]c3c2)CC1 [DOVITINIB]
- Activity [2]: Toxic

- inhibition [1]: 12.9%
SMILES: Cc1ccccc1C(=O)N1CCN(c2ccc(NC(=O)c3ccc(-c4ccc(Cl)cc4)o3)cc2)CC1

- inhibition [1]: 60.4%
SMILES: Cc1cc(C(=O)Nc2ccc(C(=O)N3CCOCC3)cc2)sc1-c1ccccc1

- inhibition [1]: 42%
SMILES: O=C(NNC(=O)c1cc2ccccc2cc1O)NC1CCCCC1

SMILES: CN1CCN(c2ccc(NC(=O)c3ccc(-c4cc(Cl)ccc4Cl)o3)cc2)CC1
- IC50 [3]: 6180 nM
- IC50 [4]: 394 nM
- inhibition [5]: 34.9%
- inhibition [6]: 9.3%
- inhibition [7]: 21.6%
- inhibition [1]: 94%
- inhibition [8]: 75.7%
- inhibition [9]: 3.5%
- inhibition [10]: 17.4%
- inhibition [11]: 54.8%
- inhibition [12]: 4.3%
- inhibition [13]: 93.8%
- inhibition [14]: 20.7%
- Activity [2]: Non-toxic
- IC50 [15]: 849 nM
- inhibition [16]: 3.4%
- inhibition [17]: 11.7%
- IC50 [18]: 850 nM
- inhibition [19]: 64.9%
- inhibition [20]: 46.9%
- inhibition [21]: 19.5%

- inhibition [1]: 46%
SMILES: CCC(=O)N1CCN(c2ccc(NC(=O)c3cc4ccccc4o3)cc2)CC1

- inhibition [1]: 63%
- IC50 [18]: 2740 nM
SMILES: CC(C)(C)c1ccc(/C=C/C(=O)Nc2ccccc2C(N)=O)cc1

- inhibition [1]: 79%
- IC50 [18]: 10300 nM
SMILES: CC[C@@H]1CCc2c(sc(NC(=O)Nc3ccccc3)c2C(N)=O)C1

- inhibition [1]: 45%
SMILES: CN1CCN(c2ccc(NC(=O)c3cccc(Cl)c3)cc2)CC1

- inhibition [1]: -4.9%
SMILES: Cc1cc(C(=O)Nc2cccc(S(=O)(=O)N3CCOCC3)c2)sc1-c1ccccc1

- inhibition [1]: 72%
- IC50 [18]: 3510 nM
SMILES: O=C(Nc1ccc(Br)cc1)Nc1ccc(CN2CCCC2)cc1

- inhibition [1]: 70%
- IC50 [18]: 3570 nM
SMILES: O=C(Nc1nnc(/C=C/c2ccccc2)s1)c1ccco1

SMILES: Cc1c(Cl)cccc1-c1ccc(C(=O)Nc2ccc(S(N)(=O)=O)cc2)o1
- inhibition [5]: 15.3%
- inhibition [6]: 51.7%
- inhibition [7]: 5.2%
- inhibition [1]: 76.4%
- inhibition [8]: 13.8%
- inhibition [9]: 23.7%
- inhibition [10]: 18.4%
- inhibition [11]: 32.4%
- inhibition [12]: -2.3%
- inhibition [13]: 27%
- inhibition [14]: 17.3%
- Activity [2]: Non-toxic
- inhibition [16]: 7.7%
- IC50 [18]: 260 nM
- inhibition [19]: 0.1%
- inhibition [20]: 24%
- inhibition [21]: 17.4%

- inhibition [1]: 16.8%
SMILES: O=C(Nc1cccc(NC(=O)c2ccc(Cl)cc2Cl)c1)c1ccc(-c2cccc([N+](=O)[O-])c2)o1

SMILES: O=C1[C@H](Cc2ccc(O)cc2)N2C(=O)CCN(C(=O)NCc3ccccc3)[C@H]2CN1Cc1cccc2ccccc12
- Activity [2]: Non-toxic
